Among the data in patent US20040059140A1, “14(15)-unsaturated 15- and/or 16-substituted androgens with mixed androgen-progrestational profile” (priority 2000, published 2004) are Androgenic activity, Progestational activity and melting point values, retold here.

In data set [1] the target is T1, human androgen receptor (hAR) (Homo sapiens, UniProt P10275).
T1 construct: expressed in transfected cells; host or cells: CHO (Chinese hamster ovary) cells
T1 sequence (P10275 1-920): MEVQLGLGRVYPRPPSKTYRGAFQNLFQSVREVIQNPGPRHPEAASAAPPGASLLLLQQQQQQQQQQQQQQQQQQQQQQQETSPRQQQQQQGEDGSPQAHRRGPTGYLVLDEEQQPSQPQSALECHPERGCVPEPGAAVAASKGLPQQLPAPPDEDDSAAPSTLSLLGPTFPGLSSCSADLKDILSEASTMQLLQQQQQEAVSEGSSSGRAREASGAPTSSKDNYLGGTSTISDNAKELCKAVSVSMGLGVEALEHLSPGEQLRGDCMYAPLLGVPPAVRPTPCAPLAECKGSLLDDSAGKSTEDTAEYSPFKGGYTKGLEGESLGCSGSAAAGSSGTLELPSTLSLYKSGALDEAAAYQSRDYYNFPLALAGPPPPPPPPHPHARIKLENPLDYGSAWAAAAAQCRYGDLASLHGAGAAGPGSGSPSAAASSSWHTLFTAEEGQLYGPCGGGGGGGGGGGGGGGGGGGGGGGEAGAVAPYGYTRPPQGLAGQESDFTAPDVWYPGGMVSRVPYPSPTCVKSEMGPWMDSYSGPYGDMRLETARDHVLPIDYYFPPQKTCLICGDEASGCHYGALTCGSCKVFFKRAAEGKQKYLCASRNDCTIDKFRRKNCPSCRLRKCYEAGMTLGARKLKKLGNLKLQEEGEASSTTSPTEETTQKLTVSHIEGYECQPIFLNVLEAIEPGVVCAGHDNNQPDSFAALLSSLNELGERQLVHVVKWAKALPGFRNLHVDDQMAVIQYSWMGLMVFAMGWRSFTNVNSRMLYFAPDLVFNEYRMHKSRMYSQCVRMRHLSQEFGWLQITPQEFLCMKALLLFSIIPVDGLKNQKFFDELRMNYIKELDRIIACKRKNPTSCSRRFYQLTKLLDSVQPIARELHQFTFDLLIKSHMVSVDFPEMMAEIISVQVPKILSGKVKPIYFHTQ
As to the kind of experiment: Androgenic activity (transactivation in CHO cells transfected with hAR, MMTV-luciferase, compared with 5α-dihydrotestosterone). More on the design: key: (−) very weak activity found; (+) activity found; (++) high activity; (+++) excellent activity. Type of data set: cell-based. The settings on record: rated by scheme. The text has this:
Androgenic activity can be measured in various ways. Thus, the potency of androgens can be determined in vitro using the cytoplasmic androgen receptor from human breast tumor cells (MCF-7 cell line); see Bergink, E. W. et al, Comparison of the receptor binding properties of nandrolone and testosterone under in vitro and in vivo conditions, J. Steroid Biochem. 22, 831-836 (1985). […] The transactivative androgen activity of the compounds of the invention can be measured, e.g. in Chinese hamster ovary cells (CHO) transfected with the human androgen receptor (hAR), in combination with a mouse mammary tumor virus (MMTV), and luciferase receptor gene (incubation time 16 h, temperature 37° C.) and compared with the activity of 5α-dihydrotestosterone [according to the procedure described by Schoonen, W. G. E. J. et al, Analyt. Biochem. 261, 222-224 (1998)]. For the in vivo potency determination of androgens the classical Hershberger test can be used. In this test the androgenic (increase in prostate weight) and anabolic activities [increase of the musculus levator ani (MLA)] of a compound are tested in immature castrated rats after daily administration for 7 days; see Hershberger, L. G. et al, Myotrophic activity of 19-Nortestosterone and other steroids determined by modified levator ani muscle method, Proceedings of the society for experimental biology and medicine 83, 175-180 (1953). Additionally, the effect of an androgenic compound on LH suppression can be tested in mature castrated rats according to Kumar, N. et al, The biological activity of 7alpha-methyl-19-nortestosteione is not amplified in male reproductive tract as is that of testosterone, Endocrinology 130, 3677-3683 (1992).
(§1) The compounds according to the invention were tested for androgenic activity and for progestational activity (the procedures for which have been described above) and rated according to the following scheme: […]

The target of data set [2] is T2, human progesterone receptor B (hPRB) (Homo sapiens, UniProt P06401).
T2 construct: expressed in transfected cells; host or cells: CHO (Chinese hamster ovary) cells
T2 sequence (P06401 1-933): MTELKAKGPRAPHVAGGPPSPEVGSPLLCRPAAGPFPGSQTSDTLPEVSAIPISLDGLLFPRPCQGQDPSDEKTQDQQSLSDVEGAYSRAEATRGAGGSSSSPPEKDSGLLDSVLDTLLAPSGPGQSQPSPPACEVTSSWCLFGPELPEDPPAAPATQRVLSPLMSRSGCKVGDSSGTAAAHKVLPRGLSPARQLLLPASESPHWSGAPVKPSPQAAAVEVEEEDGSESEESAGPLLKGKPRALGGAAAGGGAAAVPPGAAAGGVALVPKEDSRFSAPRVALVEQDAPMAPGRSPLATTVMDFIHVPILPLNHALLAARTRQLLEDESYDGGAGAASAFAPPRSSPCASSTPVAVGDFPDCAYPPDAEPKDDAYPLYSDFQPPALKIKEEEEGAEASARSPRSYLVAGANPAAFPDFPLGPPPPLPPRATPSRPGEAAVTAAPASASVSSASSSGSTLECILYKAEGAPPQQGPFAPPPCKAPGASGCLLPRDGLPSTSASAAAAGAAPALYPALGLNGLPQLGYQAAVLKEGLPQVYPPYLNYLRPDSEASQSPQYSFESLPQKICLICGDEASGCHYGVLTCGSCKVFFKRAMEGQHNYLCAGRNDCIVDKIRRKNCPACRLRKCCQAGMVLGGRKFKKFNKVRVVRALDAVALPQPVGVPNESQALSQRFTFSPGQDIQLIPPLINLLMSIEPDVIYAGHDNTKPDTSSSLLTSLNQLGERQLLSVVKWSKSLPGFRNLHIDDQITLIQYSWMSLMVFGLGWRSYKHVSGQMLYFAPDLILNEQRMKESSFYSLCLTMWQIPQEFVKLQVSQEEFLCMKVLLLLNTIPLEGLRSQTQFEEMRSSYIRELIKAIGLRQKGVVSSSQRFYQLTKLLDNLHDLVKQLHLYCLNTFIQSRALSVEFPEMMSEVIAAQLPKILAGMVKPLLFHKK
As to the kind of experiment: Progestational activity (transactivation in CHO cells transfected with hPRB, MMTV-luciferase, compared with (16α)-16-ethyl-21-hydroxy-19-norpregn-4-ene-3,20-dione). Type of data set: cell-based. More on the design: key: (−) very weak activity found; (+) activity found; (++) high activity; (+++) excellent activity. The settings on record: rated by scheme. Here is the method:
The transactivative progestagenic activity of the compounds of the invention can be measured, e.g. in Chinese hamster ovary cells (CHO) transfected with the human progesterone receptor B (hPRB), in combination with a mouse mammary tumor virus (MMTV), and luciferase receptor gene (incubation time 16 h, temperature 37° C.) and compared with the activity of (16α)-16-ethyl-21-hydroxy-19-norpregn-4-ene-3,20-dione [according to the procedure described by Schoonen, W. G. E. J. et al, Analyt. Biochem. 261, 222-224 (1998)].
as §1

As to `C[C@H]1C=C2[C@@H]3CCC4=CC(=O)CC[C@@H]4[C@H]3CC[C@]2(C)[C@H]1O` [Example 6b, (16β,17β)-17-hydroxy-16-methylestra-4,14-dien-3-one], the Androgenic activity entry in data set [1] is “++”. In data set [2], the Progestational activity result is “+”.

In the case of `C[C@@H]1CC2=CC(=O)CC[C@@H]2[C@H]2CC[C@@]3(C)C(=CC[C@@H]3O)[C@@H]21` [Reference compound (Segaloff comp.*), (7α,17β)-7-methyl-17-hydroxyestra-4,14-dien-3-one, reference compound], in data set [1], the Androgenic activity result is “+++”. For the same compound, the Progestational activity entry in data set [2] is on record as “−”.

For `CC[C@@H]1CC2=C(CC[C@H](O)C2)[C@H]2CC[C@@]3(C)C(=C(C)C[C@@H]3O)[C@H]12` [Example 8c, (3β,7α,17β)-7-ethyl-15-methylestra-5 (10),14-diene-3,17-diol], the Androgenic activity result in data set [1] is “Prodrug”. Besides, in data set [2], the Progestational activity entry is on record as “Prodrug”.

For the compound `CC[C@@H]1CC2=C(CCC(=O)C2)[C@H]2CC[C@@]3(C)C(=C(C)C[C@@H]3O)[C@H]12` [Example 8a, (7α,17β)-7-Ethyl-17-hydroxy-15-methylestra-5(10),14-dien-3-one], the Androgenic activity result in data set [1] is given as “Prodrug”. In data set [2], the Progestational activity result is recorded as “Prodrug”.

On to `CC[C@@H]1CC2=C(CC[C@@H](O)C2)[C@H]2CC[C@@]3(C)C(=C(C)C[C@@H]3O)[C@H]12` [Example 8b, (3α,7α,17β)-7-ethyl-15-methylestra-5(10),14-diene-3,17-diol], for which the Androgenic activity entry in data set [1] is “Prodrug”. In addition, the Progestational activity entry in data set [2] is listed as “Prodrug”.

In the case of `CCC1=C2[C@@H]3[C@H](CC)CC4=CC(=O)CC[C@@H]4[C@H]3CC[C@]2(C)[C@@H](O)C1` [Example 4, (7α,17β)-7,15-Diethyl-17-hydroxyestra-4,14-dien-3-one], in data set [1], the Androgenic activity entry is “+”. Further, the Progestational activity entry in data set [2] was “+”.

For `CC[C@@H]1CC2=CC(=O)CC[C@@H]2[C@H]2CC[C@@]3(C)C(=C[C@@H](C)[C@@H]3O)[C@H]12` [Example 7b, (7α,16α,17β)-17-Hydroxy-7-ethyl-16-metliylestra-4,14-dien-3-one], the Androgenic activity entry in data set [1] was “++”. The Progestational activity result in data set [2] is given as “+”.

Consider `C[C@@H]1C=C2[C@@H]3CCC4=CC(=O)CC[C@@H]4[C@H]3CC[C@]2(C)[C@H]1O` [Example 6a, (16α,17β)-17-Hydroxy-16-methylestra-4,14-dien-3-one], for which the Androgenic activity entry in data set [1] is “+”. Moreover, in data set [2], the Progestational activity result is “+”.

`CC1=C2[C@H]3[C@H](CC[C@]2(C)[C@@H](O)C1)[C@H]1CCC(=O)C=C1C[C@H]3C` [Example 1, (7α,17β)-17-Hydroxy-7,15-dimethylestra-4,14-dien-3-one]: the melting point was in the range of 164 to 167 °C. The Androgenic activity entry in data set [1] is “++”. Besides, in data set [2], the Progestational activity result is recorded as “++”.

In the case of `CC[C@]12CC[C@H]3[C@H](C1=C(C)C[C@@H]2O)[C@H](C)CC1=CC(=O)CC[C@@H]13` [Example 5, (7α,17β)-13-Ethyl-17-hydroxy-7,15-dimethylgona-4,14-dien-3-one], the Androgenic activity entry in data set [1] is reported as “++”. The Progestational activity result in data set [2] is “+”.

With `C[C@@H]1C=C2[C@H]3[C@H](CC[C@]2(C)[C@H]1O)[C@H]1CCC(=O)C=C1C[C@H]3C` [Example 7a, (7α,16α,17β)-17-Hydroxy-7,16-dimethylestra-4,14-dien-3-one], the Androgenic activity entry in data set [1] was “++”. For the same compound, the Progestational activity result in data set [2] is “+”.

Regarding `C=C[C@@H]1CC2=CC(=O)CC[C@@H]2[C@H]2CC[C@@]3(C)C(=C[C@@H](C)[C@@H]3O)[C@@H]21` [Example 7c, (7α,16α,17β)-17-Hydroxy-16-methyl-7-vinylestra-4,14-dien-3-one], the Androgenic activity result in data set [1] was “++”. Also, the Progestational activity result in data set [2] was “+”.

As for `CC[C@@H]1CC2=CC(=O)CC[C@@H]2[C@H]2CC[C@@]3(C)C(=C(C)C[C@@H]3O)[C@H]12` [Example 3, (7α,17β)-7-Ethyl-17-hydroxy-15-methylestra-4,14-dien-3-one], the Androgenic activity entry in data set [1] is reported as “++”. Also, the Progestational activity entry in data set [2] is on record as “+”.

Consider `CCC1=C2[C@H]3[C@H](CC[C@]2(C)[C@@H](O)C1)[C@H]1CCC(=O)C=C1C[C@H]3C` [Example 2, (7α,17β)-15-Ethyl-17-hydroxy-7-methylestra-4,14-dien-3-one], for which the Androgenic activity result in data set [1] was “+”. Moreover, in data set [2], the Progestational activity entry is reported as “++”.

In general, melting point refers to the temperature, or range, at which the solid turns liquid.
